“Also recorded” adds a separate entry of the source. Like-named read-outs stand apart in the source and are kept apart here. Where a SMILES comes first, the peptide text is derived from it.

The nature of data set [1]: Organoleptic check of ORS solutions with a single sweetener. In kind it is in vivo. The conditions noted are these: 200 mg Na-cyclamate or quantity calculated to equal sweetening power per dose. How it is done:
Permitted sweeteners were used for a taste test on ORS solutions. Different concentrations of 10 to 200 mg of the sweetener Na-cyclamate were weighed into the solids mixture. Na-cyclamate is a sodium salt like NaCl. In comparison to other sweeteners, it has a low sweetening power. It was to be found out whether the salty taste of the ORS solution can be masked as a function of concentration by Na-cyclamate. The powder mixtures were weighed out according to the composition of the WHO and dissolved in water according to the instruction.
After organoleptic checking, no salty taste was perceived for the ORS solution with a concentration of 200 mg Na-cyclamate.
The sweeteners were calculated to the standard concentration of the Na-cyclamate. The different sweetening power values of the sweeteners were used as the reference variable.
The calculated quantities of sweeteners were added to the ORS powder mixtures and dissolved in water. The following organoleptic test took place.

The conditions of data set [2]: cited from earlier work; for ADI value/kg KG: acceptable daily intake per kg body weight.
The conditions of data set [3]: cited from earlier work.
The nature of data set [4]: Acceptable daily intake (ADI) value and highest daily doses calculated from it. The conditions noted are these: child weighing 10 kg; for Highest dose/sachet: four sachets a day.
From the text: An E number is provided for each sweetener and an ADI value is defined. The “acceptable daily intake” (ADI) value gives the quantity in milligrams per kilogram of body weight (KG) of the substance, which can be taken daily for life without incurring damage.
ADI values (acceptable daily intake) were established for the sweeteners. Using the ADI values, maximum concentrations can be calculated, which may be applied daily by a substance without incurring damage for life. The sweetener addition to the ORS solutions is limited by the ADI values. According to the specialist information for preparation C, the therapeutic maximum dose is four sachets a day for babies and small children. […] The calculation relates to the bodyweight of a child weighing 10 kg.
The conditions of data set [5]: in vivo; cited from earlier work.
Data set [6] in a line: Organoleptic test of ORS solutions with sugars and sugar alcohols. The class given is in vivo. An excerpt:
Further sweetening agents were included in a taste testing. An addition of sugars and sugar alcohols has a substantially stronger effect on the total osmolarity of an ORS solution than the addition of sweeteners. […] In addition to the total osmolarity of the effective constituents of the ORS solutions, the values are outside the recommended limits of the WHO recommendations. The quantities to be added are not to be recommended either in relation to the promotion of caries and a laxative effective. […] A taste test was nevertheless carried out with the sugars and sugar alcohols. Complete dissolution took place in water and an organoleptic test took place with the calculated quantities. […] The concentrations of substances were reduced to such an extent that the maximum limit of the osmolarity of 311 mosmol/l was adhered to. […] The addition of sweeteners is to be preferred in each case with regard to side-effects, osmolarity and a complete masking of the salty taste.

The conditions of data set [7]: neotam as aspartame derivative; cited from earlier work.
The subject of data set [8] is bladder carcinomas. To be noted: cited from earlier work.
The conditions of data set [9]: ranking of the three sweeteners.
Method: In order to use as few sweeteners as possible, two sweeteners from Table 3 are combined with one another in each case. The result is six combinations. […] As a result, the concentration with 40 mg for aspartame was only selected to be half as high as the maximally permissible daily highest limit. In order to ensure a comparability with the other sweeteners, the concentration of aspartame was also retained for the remaining combinations.
Proceeding from the tested concentration ratios of the combinations it was investigated whether the same masking of taste can be achieved by a reduction in dose of the sweeteners.
Setting [10] is: relative to saccharose = 1, sweeteners permitted in the European Union.
Setting [11] is: sugars and sugar alcohols table.
The mark [12] stands for this setting: calculated quantities (equal sweetness to 200 mg Na-cyclamate).
Setting [13] is: concentrations reduced so that maximum osmolarity of 311 mosmol/l is adhered to.

For `CC1=CC(=O)NS(=O)(=O)O1` [Acesulfame potassium], the “masking of the salty taste of the ORS solution” value in data set [1] (listed as acesulfame-K) is reported as “salty taste was perceived to a lesser extent; also recorded: masking was achieved”. Besides, the “ADI value/kg KG” value in data set [2] was 15 mg mg/kg KG. In addition, the Sweetening power in [3] (setting [10]) is recorded as 200. In data set [4], the “Highest daily dose/10 kg BW” value is 150 mg and the Highest dose/sachet is recorded as 37.5 mg.

As to `CC1=CC(=O)NS(=O)(=O)O1` [Acesulfame], the “fate in the human organism (splitting, metabolism, elimination)” value (“fate in the human organism” for short) in data set [5] is reported as “eliminated unchanged via the kidneys”.

In the case of `CC1=CC(=O)NS(=O)(=O)O1.COC(=O)[C@H](Cc1ccccc1)NC(=O)[C@@H](N)CC(=O)O` [Aspartame-acesulfame salt] (H-Asp-Phe-OMe), the “masking of the salty taste of the ORS solution” value in [1] is “salty taste was perceived to a lesser extent”. Also, in [5], the “fate in the human organism” value was “split into its original components aspartame and acesulfame”. The Sweetening power in [3] (setting [10]) is given as 350.

Turning to `COC(=O)[C@H](Cc1ccccc1)NC(=O)[C@@H](N)CC(=O)O` [Aspartame] (H-Asp-Phe-OMe), the “masking of the salty taste of the ORS solution” value in data set [1] is “salty taste was perceived to a lesser extent; also recorded: masking was achieved”. The “ADI value/kg KG” value in data set [2] was 40 mg mg/kg KG. The “fate in the human organism” value in [5] was “metabolised in the body”. Also, in data set [3] (setting [10]), the Sweetening power is given as 200. In data set [4], the “Highest daily dose/10 kg BW” value is given as 400 mg and the Highest dose/sachet is on record as 100.0 mg.

Take `OC[C@H]1O[C@@H](O[C@H]2[C@H](O)[C@@H](O)C(O)O[C@@H]2CO)[C@H](O)[C@@H](O)[C@H]1O` (stereo partly drawn) [Lactose]: the Sweetening power in data set [3] (setting [11]) is listed as 0.2.

Consider `OC[C@@H](O)[C@@H](O[C@H]1O[C@H](CO)[C@@H](O)[C@H](O)[C@H]1O)[C@H](O)[C@@H](O)CO` [Maltitol], for which the “masking of the salty taste of the ORS solutions” value in data set [6] (setting [12]) was “masking of the salty taste of the ORS solutions could substantially be achieved”; in data set [6] (setting [13]), “substantially not salty, but very sour and not sweet”. The Sweetening power in [3] (setting [11]) is listed as 0.9.

As to `OC[C@@H](O)[C@@H](O)[C@H](O)[C@H](O)CO` [Mannitol], the Sweetening power in data set [3] (setting [11]) is listed as 0.4.

Take `COc1ccc(CCC(=O)c2c(O)cc(O[C@@H]3O[C@H](CO)[C@@H](O)[C@H](O)[C@H]3O[C@@H]3O[C@@H](C)[C@H](O)[C@@H](O)[C@H]3O)cc2O)cc1O` [Neohesperidin dihydrochalcone]: the “ADI value/kg KG” value in [2] is 5 mg mg/kg KG. Moreover, the Sweetening power in data set [3] (setting [10]) is recorded as 1000.

Turning to `COC(=O)[C@H](Cc1ccccc1)NC(=O)[C@H](CC(=O)O)NCCC(C)(C)C` [Neotam], the hydrolytic stability entry in [7] was “better hydrolytic stability”. Besides, the Sweetening power entry in [3] (relative to saccharose) was “about 10,000”.

In the case of `O=C1NS(=O)(=O)c2ccccc21.[Na]` [Saccharin sodium], the “ADI value/kg KG” value in [2] is listed as 5 mg mg/kg KG. Besides, in data set [3] (setting [10]), the Sweetening power is 500. In data set [8], the “promotion of the growth of bladder carcinomas” value is on record as “suspected of promoting the growth of bladder carcinomas”. Moreover, in [4], the “Highest daily dose/10 kg BW” value was 50 mg and the Highest dose/sachet was 12.5 mg.

With `OC[C@H]1O[C@@](CO)(O[C@H]2O[C@H](CO)[C@@H](O)[C@H](O)[C@H]2O)[C@@H](O)[C@@H]1O` [Saccharose], the “masking of the salty taste of the ORS solutions” value in data set [6] (setting [12]) is recorded as “masking of the salty taste of the ORS solutions could substantially be achieved”; in data set [6] (setting [13]), “No masking of taste could be achieved”. For the same compound, the Sweetening power result in data set [3] (relative to saccharose) was “one”; in [3] (setting [11]), 1.

Consider `O=S(=O)([O-])NC1CCCCC1.[Na+]` [Sodium cyclamate], for which, in [1], the “masking of the salty taste of the ORS solution” value is listed as “complete masking of taste; also recorded: masking was achieved”. In addition, the “ability to mask a salty taste” value in data set [9] is “highest”. Besides, in data set [2], the “ADI value/kg KG” value was 11 mg mg/kg KG and the ADI value was 11 mg per kg of bodyweight. For the same compound, the Sweetening power in data set [3] (setting [10]) is given as 30. Moreover, the Sweetening power in data set [3] (setting [11]) is listed as 30. Besides, in data set [4], the “Highest daily dose/10 kg BW” value is given as 110 mg and the Highest dose/sachet is given as 27.5 mg.

As for `OC[C@@H](O)[C@@H](O)[C@H](O)[C@@H](O)CO` [Sorbitol], in data set [3] (setting [11]), the Sweetening power is given as 0.6.

Take `OC[C@H]1O[C@H](O[C@]2(CCl)O[C@H](CCl)[C@@H](O)[C@@H]2O)[C@H](O)[C@@H](O)[C@H]1Cl` [Sucralose]: the “ADI value/kg KG” value in data set [2] was 15 mg mg/kg KG. In data set [3] (setting [10]), the Sweetening power is listed as 600.

Isomalt: in [3] (setting [11]), the Sweetening power is on record as 0.45.

Consider Thaumatin, for which the “masking of the salty taste of the ORS solution” value in data set [1] is given as “could also no longer be masked”. The “ADI value/kg KG” value in data set [2] is 5 mg mg/kg KG. The Sweetening power in data set [3] (setting [10]) is reported as 3000.

The record behind these values is US20100298242A1, “MASKING THE TASTE OF COMPOSITONS CONTAINING SALT” (priority 2006, published 2010).
